Results reported in PubChem BioAssay AID248 (DTP/NCI, 2004).
Values joined by “and” are separate entries in the source; they are usually repeats but may differ in a detail not shown here. Equal entries are not always repeated. Toxic doses and inconclusive results are not listed. Rule as the data show it: active = T/C of 150% or more; inactive = T/C below 125%.

Test system: L1210 leukemia ip in BDF1 mice, survival T/C
Experiment: NCI In Vivo Anticancer Drug Screen. Data for tumor model L1210 Leukemia (intraperitoneal) in B6D2F1 (BDF1) mice
Details: endpoint: mean survival time, higher = longer survival
How it was run: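 Transplantable tumor model; survival measured in treated vs vehicle control mice. Value = treated/control.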

[1] = dose: 100.0 mg/kg/injection, schedule: Q04DX002 (ip), vehicle: Klucel (hydroxypropylcellulose) (HPC)
[2] = dose: 200.0 mg/kg/injection, schedule: Q04DX002 (ip), vehicle: Klucel (hydroxypropylcellulose) (HPC)
[3] = dose: 400.0 mg/kg/injection, schedule: Q04DX002 (ip), vehicle: Klucel (hydroxypropylcellulose) (HPC)
[4] = dose: 100.0 mg/kg/injection, schedule: Q01DX009 (ip), vehicle: saline with Tween-80
[5] = dose: 200.0 mg/kg/injection, schedule: Q01DX009 (ip), vehicle: saline with Tween-80
[6] = dose: 400.0 mg/kg/injection, schedule: Q01DX009 (ip), vehicle: saline with Tween-80
[7] = dose: 100.0 mg/kg/injection, schedule: Q04DX003 (ip), vehicle: Klucel (hydroxypropylcellulose) (HPC)
[8] = dose: 200.0 mg/kg/injection, schedule: Q01DX009 (ip), vehicle: Klucel (hydroxypropylcellulose) (HPC)
[9] = dose: 200.0 mg/kg/injection, schedule: Q04DX003 (ip), vehicle: Klucel (hydroxypropylcellulose) (HPC)
[10] = dose: 400.0 mg/kg/injection, schedule: Q01DX009 (ip), vehicle: Klucel (hydroxypropylcellulose) (HPC)
[11] = dose: 75.0 mg/kg/injection, schedule: Q01DX001 (ip), vehicle: other
[12] = dose: 150.0 mg/kg/injection, schedule: Q01DX001 (ip), vehicle: other
[13] = dose: 100.0 mg/kg/injection, schedule: Q01DX001 (ip), vehicle: saline
[14] = dose: 200.0 mg/kg/injection, schedule: Q01DX001 (ip), vehicle: saline
[15] = dose: 400.0 mg/kg/injection, schedule: Q01DX001 (ip), vehicle: saline
[16] = dose: 100.0 mg/kg/injection, schedule: Q04DX003 (ip), vehicle: saline with Tween-80
[17] = dose: 200.0 mg/kg/injection, schedule: Q04DX003 (ip), vehicle: saline with Tween-80
[18] = dose: 400.0 mg/kg/injection, schedule: Q04DX003 (ip), vehicle: saline with Tween-80

Measured: T/C

CCOP(=O)(OCC)c1ccccc1Br
inactive: dose: 100.0 mg/kg/injection, schedule: Q01DX001 (ip), vehicle: acetone 89 % of control | dose: 200.0 mg/kg/injection, schedule: Q01DX001 (ip), vehicle: acetone 87 % of control | dose: 400.0 mg/kg/injection, schedule: Q01DX001 (ip), vehicle: acetone 89 % of control

OCC1CCCCC1CO (stereo not given)
inactive: [1] 113 % of control | [2] 107 % of control | [3] 103 % of control

C=C1N2CCC(CC2)C1(O)c1ccccc1 (stereo not given)
inactive: dose: 3.13 mg/kg/injection, schedule: Q04DX003 (ip), vehicle: saline 92 % of control | dose: 6.25 mg/kg/injection, schedule: Q04DX003 (ip), vehicle: saline 103 % of control | dose: 12.5 mg/kg/injection, schedule: Q04DX003 (ip), vehicle: Klucel (hydroxypropylcellulose) (HPC) 103 % of control | dose: 12.5 mg/kg/injection, schedule: Q04DX003 (ip), vehicle: saline 97 % of control

COc1cc(/C=N/NC(=O)c2cccs2)cc(OC)c1OC
inactive: [4] 98 % of control | [5] 94 % of control | [6] 98 % of control

O=[N+]([O-])c1ccc(O)c(CCl)c1
inactive: dose: 50.0 mg/kg/injection, schedule: Q04DX002 (ip), vehicle: saline with Tween-80 109 % of control | dose: 100.0 mg/kg/injection, schedule: Q04DX002 (ip), vehicle: DMSO 107 % of control | dose: 100.0 mg/kg/injection, schedule: Q04DX002 (ip), vehicle: saline with Tween-80 109 % of control | dose: 200.0 mg/kg/injection, schedule: Q04DX002 (ip), vehicle: DMSO 86 % of control | dose: 200.0 mg/kg/injection, schedule: Q04DX002 (ip), vehicle: saline with Tween-80 98 % of control | dose: 400.0 mg/kg/injection, schedule: Q04DX002 (ip), vehicle: saline with Tween-80 104 % of control

Nc1ccc(CC(=O)O)c(N)c1
inactive: [1] 87 % of control | [2] 97 % of control | [3] 97 % of control

NC(=O)Cc1ccc(C(C2=C(O)c3ccccc3C(=O)C2=O)C2=C(O)c3ccccc3C(=O)C2=O)cc1
inactive: dose: 75.0 mg/kg/injection, schedule: Q01DX001 (ip), vehicle: saline 96 % of control | dose: 150.0 mg/kg/injection, schedule: Q01DX001 (ip), vehicle: saline 101 % of control | dose: 300.0 mg/kg/injection, schedule: Q01DX001 (ip), vehicle: saline 91 % of control

CCC1=C/C(=C/c2cccc(OC)c2O)C(=O)S1
inactive: dose: 100.0 mg/kg/injection, schedule: Q01DX001 (ip), vehicle: saline with Tween-80 97 % of control | dose: 200.0 mg/kg/injection, schedule: Q01DX001 (ip), vehicle: saline with Tween-80 97 % of control | dose: 400.0 mg/kg/injection, schedule: Q01DX001 (ip), vehicle: saline with Tween-80 87 % of control

O=C1CCCC/C1=C/c1ccccc1
inactive: dose: 100.0 mg/kg/injection, schedule: Q01DX009 (ip), vehicle: Klucel (hydroxypropylcellulose) (HPC) 102 % of control and 112 % of control | [7] 97 % of control and 96 % of control | [8] 102 % of control | [9] 104 % of control and 101 % of control | [10] 102 % of control and 96 % of control | dose: 400.0 mg/kg/injection, schedule: Q04DX003 (ip), vehicle: Klucel (hydroxypropylcellulose) (HPC) 104 % of control and 100 % of control

CCOC(=O)C(C#N)C(=N)C1CC(C)(C)OC1=O (stereo not given)
inactive: [11] 101 % of control | [12] 106 % of control

CCCCCCCCCCCCC[n+]1cccc(C#N)c1
inactive: dose: 5.0 mg/kg/injection, schedule: Q04DX003 (ip), vehicle: saline 100 % of control | dose: 10.0 mg/kg/injection, schedule: Q01DX001 (ip), vehicle: saline 94 % of control | dose: 10.0 mg/kg/injection, schedule: Q04DX003 (ip), vehicle: saline 96 % of control | dose: 20.0 mg/kg/injection, schedule: Q01DX001 (ip), vehicle: saline 103 % of control | dose: 20.0 mg/kg/injection, schedule: Q04DX003 (ip), vehicle: saline 96 % of control

CC(=O)NN1C(=O)c2ccccc2C1=O
inactive: dose: 50.0 mg/kg/injection, schedule: Q04DX003 (ip), vehicle: Klucel (hydroxypropylcellulose) (HPC) 97 % of control | [7] 104 % of control | [9] 101 % of control

O=c1cc(CO)oc(C(Nc2cccc(Cl)c2)c2ccccc2)c1O (stereo not given)
inactive: [13] 91 % of control | [14] 95 % of control | [15] 89 % of control

CSCCNC(=O)NS(=O)(=O)c1ccc(C)cc1
inactive: [16] 96 % of control | [17] 97 % of control | [18] 97 % of control

O=[N+]([O-])c1ccc(-n2nccn2)cc1
inactive: [11] 100 % of control | [12] 107 % of control

CC1(c2ccco2)C(=O)NC(=O)N1C(=O)CCl (stereo not given)
inactive: [4] 112 % of control | [16] 96 % of control | [5] 101 % of control | [17] 103 % of control | [18] 101 % of control

CC1CCCC2C(=O)CCC(C(C)(C)O)C12C (stereo not given)
inactive: [4] 91 % of control | [16] 92 % of control | [5] 95 % of control | [17] 92 % of control | [6] 93 % of control | [18] 92 % of control

Clc1ccccc1C(c1cccc2ccccc12)n1ccnc1 (stereo not given)
inactive: dose: 25.0 mg/kg/injection, schedule: Q04DX002 (ip), vehicle: Klucel (hydroxypropylcellulose) (HPC) 92 % of control | dose: 50.0 mg/kg/injection, schedule: Q04DX002 (ip), vehicle: Klucel (hydroxypropylcellulose) (HPC) 100 % of control | [1] 100 % of control | [8] 93 % of control | [10] 86 % of control

Cc1ccc(CN=C(N)CSS(=O)(=O)O)cc1C
inactive: [1] 97 % of control | [2] 101 % of control

O=C1NC2(c3ccccc3)NC(=O)NC2(c2ccccc2)N1 (stereo not given)
inactive: [13] 97 % of control | dose: 100.0 mg/kg/injection, schedule: Q01DX009 (ip), vehicle: saline 91 % of control | dose: 100.0 mg/kg/injection, schedule: Q04DX003 (ip), vehicle: saline 102 % of control | [14] 92 % of control | dose: 200.0 mg/kg/injection, schedule: Q01DX009 (ip), vehicle: saline 97 % of control | dose: 200.0 mg/kg/injection, schedule: Q04DX003 (ip), vehicle: saline 95 % of control | [15] 100 % of control | dose: 400.0 mg/kg/injection, schedule: Q01DX009 (ip), vehicle: saline 102 % of control | dose: 400.0 mg/kg/injection, schedule: Q04DX003 (ip), vehicle: saline 102 % of control

O=C1C(=O)c2ccccc2C([O-])=C1[n+]1ccccc1
inactive: dose: 50.0 mg/kg/injection, schedule: Q01DX009 (ip), vehicle: saline with Tween-80 97 % of control | dose: 50.0 mg/kg/injection, schedule: Q04DX003 (ip), vehicle: saline with Tween-80 103 % of control | [4] 95 % of control | [16] 97 % of control | [5] 93 % of control | [17] 98 % of control
